Legend:
[1] = system: IR-β; test: Tyrosine phosphorylation and expression of IR-β in C2C12 myotubes differentiated in serum free medium without (MF) or with chronic insulin (MFI); immunoprecipitation and immunoblot; assay type: cell-based, mouse
Protocol: (§1) FIG. 5 represents the effect of insulin stimulation on control and chronically insulin-differentiated cells: Cells were stimulated with 100 nm of insulin for 5 min. Cell lysates were run on sodium dodecyl sulphate-7%-polyacrylamide gel electrophoresis (SDS-7%-PAGE) and were immunoblotted with antiphosphotyrosine antibody (A) or anti-IRS-1 antibody (C) or anti-IR-β antibody (E). Cell lysates were immunoprecipitated with antibodies to IRS-1 (B) or IR-β (D) and immunoblotted (IB) with antiphosphotyrosine antibody; and FIG. 6 represents the effect of pioglitazone on tyrosine phosphorylation of IRS-1 and IR-β: Pioglitazone was added at 50 μM concentration during the last day of differentiation for 24 hr. Then, the cells were stimulated with 100 nm of insulin for 5 min. Cell lysate were immunoblotted (IB) with antiphosphotyrosine antibody (A) or α-IRS-1 (B). Cell lysates of the samples prepared the same immunoprecipitated (IP) with antibodies and immunoblotted (IB) with antiphosphotyrosine (C) or anti-IR-β (D) antibodies. C2C12 cells were grown in DMEM (Dulbecco's Modified Eagle Medium) containing 15% FCS (fetal calf serum). The cells were differentiated in serum free medium in the absence or chronic presence of 100 nm insulin. After three days the differentiation was complete. […]

[2] = system: IRS-1; test: Tyrosine phosphorylation and expression of IRS-1 in C2C12 myotubes differentiated in serum free medium without (MF) or with chronic insulin (MFI); immunoblot; assay type: cell-based, mouse
Protocol: as §1

insulin
expression of IR-β ([1]; C2C12 cells differentiated in chronic presence of 100 nm insulin, FIG. 5E): reduced
tyrosine phosphorylation levels of IR ([1]; MFI (chronic 100 nm insulin) versus MF differentiated C2C12 cells, FIG. 5D): Severe reduction
ability of IRS-1 to undergo tyrosine phosphorylation in response to insulin ([2]; C2C12 cells differentiated in chronic presence of 100 nm insulin (MFI), FIG. 5B): impaired
tyrosine phosphorylation of IRS-1 (Mr 160–170 kDa protein) ([2]; control (MF) C2C12 myotubes stimulated with 100 nm insulin for 5 min, FIG. 5A): insulin stimulated tyrosine phosphorylation

— patent US7052910B2, “Skeletal cell model to screen anti-diabetic compounds” (Council of Scientific and Industrial Research, priority 2001, dated 2006)
